Patent publication US10456388B2, “Antihistamine for use in treatment of breast cancer” (BELINA PHARMA AB, priority 2015, dated 2019)
Read-outs that look alike come from different tables or passages of the source.

How the values were obtained:
women with invasive BC [1] = details: for Hazard ratio Exp(B), ER Negative Breast Cancer / Hazard ratio Exp(B), ER Positive Breast Cancer / BC specific survival compared to controls (Kaplan-Meier, univariate): late entry model; for Hazard ratio Exp(B), ER Negative Breast Cancer / Hazard ratio Exp(B), ER Positive Breast Cancer / Hazard ratio Exp(B), Cox proportional hazard - late entry model: adjusted for age at BC diagnosis and TN-stage; for HR (CI), late entry model: adjusted for age at BC diagnosis and TN; for Hazard ratio Exp(B), Cox proportional hazard - late entry model: ever-use vs controls, cases before 1st of Jul. 2005 and unknown N-status censored, Table 5; for Dead in BC (Yes): groups by main antihistamine used, patients from 1st of Jul. 2005-31st of Dec. 2008; for BC specific survival compared to controls (Kaplan-Meier, univariate): FIGS. 4 and 5
breast cancer cases = assay: Replication study, extended breast cancer material Swedish Cancer Registry 2000-2013 (n=103 500 cases), late entry models; type: in vivo, human; details: for Breast cancer survival HR / Overall survival HR: use after diagnosis, adjusted for age, tumour stage, late entry models; for BC survival HR: extended study, real patient data; for Survival of users compared with non-users, in words: replication study, Table 10; for Breast cancer survival HR by desloratadine use: late entry model
Description: Using an extended breast cancer material of all cases from the Swedish Cancer Registry 2000-2013 (n=103 500 cases) linking the data with the Drug Prescription Registry a replication study was carried out. The data from this extended study can be found in Tables 10 and 11. With the larger set of data, the effect for each individual antihistamine becomes more pronounced.
Using an extended breast cancer material of all cases from the Swedish Cancer Registry 2000-2013 (n=103 500 cases) linking the data with the Drug Prescription Registry a replication study was carried out. The data from this extended study are represented in tables 10 and 11.
Using an extended breast cancer material of all cases from the Swedish Cancer Registry 2000-2013 (n=103 500 cases) linking the data with the Drug Prescription Registry, a replication study was carried out, as shown in table 10.

women with invasive BC [2] = details: for BC specific survival compared to controls (Kaplan-Meier, univariate): ever-use model, FIGS. 1 to 3; for Dead in BC (Yes): groups by main antihistamine used, all patients from 2000-2008
[3] = multi dose studies with 100 mg per day; cited from earlier work
[4] = Survival 2009-2014 (title: 2009-2013)

Row | SMILES | Hazard ratio Exp(B), ER Negative Breast Cancer (women with invasive BC [1]) | Hazard ratio Exp(B), ER Positive Breast Cancer (women with invasive BC [1]) | HR (CI), late entry model (women with invasive BC [1]) | Hazard ratio Exp(B), Cox proportional hazard - late entry model (women with invasive BC [1]) | Dead in BC (Yes) (women with invasive BC [1]) [%] | BC specific survival compared to controls (Kaplan-Meier, univariate) (women with invasive BC [1]) | Breast cancer survival HR (breast cancer cases; Survival 2005-2008) | Overall survival HR (breast cancer cases; Survival 2005-2008) | Breast cancer survival HR (breast cancer cases; [4]) | Overall survival HR (breast cancer cases; [4]) | BC survival HR (breast cancer cases) | Survival of users compared with non-users, in words (breast cancer cases) | BC specific survival compared to controls (Kaplan-Meier, univariate) (women with invasive BC [2]) | Dead in BC (Yes) (women with invasive BC [2]) [%] | Effect on breast cancer survival rate by treatment period (FIG. 7) (women with invasive BC [1]; use only after the BC diagnosis) | Effect on breast cancer survival rate by treatment period (FIG. 7) (women with invasive BC [1]; use only before the BC diagnosis) | Breast cancer survival HR by desloratadine use (breast cancer cases; <400 days use vs never) | Survival HR, users compared with non users (breast cancer cases; years before 2009) | Breast cancer survival HR by desloratadine use (breast cancer cases; ≥400 days use vs never) | Clinical side effects [3]
1 | O=C(O)COCCN1CCN(C(c2ccccc2)c2ccc(Cl)cc2)CC1 (centres unmarked) [Cetirizine, cetirizine] | 1.491 | 2.166 | 1.13 (0.96-1.33) | 1.194 | 16.5 | non-statistically significant longer BC specific survival | 1.08 | 1.41 | 1.21 | 1.09 | 1.28 | negatively affects survival | initially had a higher survival percentage compared to controls, but with time it became lower compared to controls | 18.0 | – | – | – | – | – | –
2 | Clc1ccc2c(c1)CCc1cccnc1C2=C1CCNCC1 [Desloratadine, desloratadine] | – | – | – | – | 8.1 | statistically significant longer BC specific survival | 0.47 | 0.47 | 0.74 | 0.71 | – | better overall and BC specific survival | clear, statistically significant, longer BC specific survival | 7.1 | clear positive effects can be shown | no positive effects on breast cancer survival rate can be established | 0.94 | 0.63 | 0.62 | –
3 | CC(C)(C)c1ccc(C(=O)CCCN2CCC(OC(c3ccccc3)c3ccccc3)CC2)cc1 [Ebastin, ebastin] | – | – | 0.50 (0.22-1.12) | – | 5.7 | statistically significant longer BC specific survival | 0.25 | 0.48 | 0.75 | 0.91 | – | better overall and BC specific survival | clear, statistically significant, longer BC specific survival | 6.7 | – | – | – | – | – | did not show any further clinical side effects
4 | CC(C)(C(=O)O)c1ccc(C(O)CCCN2CCC(C(O)(c3ccccc3)c3ccccc3)CC2)cc1 (centres unmarked) [Fexofenadine, fexofenadine] | .316 | .826 | 0.73 (0.30-1.76) | .802 | 11.6 | non-statistically significant longer BC specific survival | 1.20 | 1.40 | 0.85 | 0.65 | – | – | clear, statistically significant, longer BC specific survival | 9.0 | – | – | – | – | – | –
5 | CN1CCC[C@@H]1CCO[C@](C)(c1ccccc1)c1ccc(Cl)cc1 [Klemastine, klemastine] | – | – | 0.98 (0.80-1.19) | – | 14.3 | non-statistically significant longer BC specific survival | 1.43 | 2.07 | 0.94 | 1.08 | 1.12 | negatively affects survival | clear, statistically significant, longer BC specific survival | 13.8 | – | – | – | – | – | –
6 | CCOC(=O)N1CCC(=C2c3ccc(Cl)cc3CCc3cccnc32)CC1 [Loratadine, loratadine] | .945 | 1.087 | 0.74 (0.60-0.93) | .816 | 10.4 | statistically significant longer BC specific survival | 0.77 | 1.05 | 0.93 | 0.86 | – | – | clear, statistically significant, longer BC specific survival | 11.7 | – | – | – | – | – | –
